{
  "source": "patent US6743586B2",
  "about": "“Rapid fluorescence detection of binding to nucleic acid drug targets labelled with highly fluorescent nucleotide base analogs” (The United States of America as represented by the …, priority 2001, dated 2004)",
  "key": {"72AP-RRE-peptide complex": {"molecular_target": "72AP-RRE-peptide complex", "assay": "Competitive displacement: 72AP-RRE-peptide complex (1:1) titrated with Neomycin B, Dynafit fit", "format": "binding, HIV-1", "procedure": "Quantitative analysis of the binding event indicates the rev peptide binds to 2-AP RRE with wild type affinity (KD˜13±2 nM). The fluorescent 72AP-RRE construct is also a useful probe for assaying small molecule binding to RRE, as well as determining if the small molecule is an effective inhibitor of the rev-RRE interaction. For example, it has been shown using the aminoglycoside Neomycin B, a known inhibitor of RRE-rev interaction, that the 72AP-RRE construct can be used to detect small molecule inhibition of the rev-RRE interaction. […]\nThe fluorescence of RNA oligonucleotide samples (150 μL), selectively labeled with 2-AP, was measured at 10° C. on a SPEX Fluoromax-2 spectrofluorometer (Instruments, SA, Edison, N.J.) using a 0.3 cm square cuvette. […] Emission spectra were recorded over the wavelength range of 330 to 450 nm with an excitation wavelength of 310 nm. […] The dissociation constant for rev binding to RRE-72AP was determined by following the increase in fluorescence at 370 nm as a fixed concentration of the fluorescent RNA was titrated with increasing amounts if rev. Similarly, the binding of aminoglycosides was followed by monitoring the change in 2-AP fluorescence as a fixed concentration of RRE-72AP or RRE-68AP was titrated with increasing amounts of the aminoglycoside. […]"}, "68AP-RRE": {"molecular_target": "68AP-RRE", "assay": "2-AP fluorescence titration of 68AP-RRE with aminoglycosides", "format": "binding, HIV-1", "procedure": "For example, using the 68AP-RRE construct, three classes of binding sites for the Neomycin B can be detected.\nThe fluorescence of RNA oligonucleotide samples (150 μL), selectively labeled with 2-AP, was measured at 10° C. on a SPEX Fluoromax-2 spectrofluorometer (Instruments, SA, Edison, N.J.) using a 0.3 cm square cuvette. RRE sample concentration was typically 100 nM in either standard buffer A (140 mM NaCl, 5 mM KCl, 1 mM MgCl2, 1 mM CaCl2, and 20 mM HEPES [7.4 pH]) or buffer B (25 mM NaCl, 5 mM KCl and 1 mM Cacodylate [6.5 pH]). Emission spectra were recorded over the wavelength range of 330 to 450 nm with an excitation wavelength of 310 nm. The spectral bandpass was 5 nm for all spectra. The dissociation constant for rev binding to RRE-72AP was determined by following the increase in fluorescence at 370 nm as a fixed concentration of the fluorescent RNA was titrated with increasing amounts if rev. Similarly, the binding of aminoglycosides was followed by monitoring the change in 2-AP fluorescence as a fixed concentration of RRE-72AP or RRE-68AP was titrated with increasing amounts of the aminoglycoside. Single site binding of rev or aminoglycoside was fitted to Formula I: […]\nwhere Fo and Ff are the initial and final fluorescence intensities, respectively, [RRE]tot is the total RRE concentration, and [L]tot is the total concentration of rev, aminoglycoside or other ligands. Aminoglycoside binding to multiple sites on RRE was modeled using the computer program Dynafit. Competitive displacement assays were performed to determine which aminoglycoside binding were inhibitory to rev binding. For these experiments, a solution of 2-AP labeled RRE was incubated with a fixed concentration of Neomycin B (or rev peptide), and the fluorescence change followed as increasing amounts of competing rev peptide (or Neomycin B) was added to the solution. The fluorescence emission intensities at 370 nm as a function of total added ligand concentration were fit to a given molecular mechanism by non-linear least squared regression using the computer program Dynafit."}, "72AP-RRE": {"molecular_target": "72AP-RRE", "assay": "2-AP fluorescence titration of RRE-72AP with rev peptide", "parameters": "species or system HIV-1", "conditions": "fluorescence at 370 nm, 10° C., wild type affinity, read-out: KD of rev peptide binding to 2-AP RRE", "procedure": "The fluorescence of RNA oligonucleotide samples (150 μL), selectively labeled with 2-AP, was measured at 10° C. on a SPEX Fluoromax-2 spectrofluorometer (Instruments, SA, Edison, N.J.) using a 0.3 cm square cuvette. RRE sample concentration was typically 100 nM in either standard buffer A (140 mM NaCl, 5 mM KCl, 1 mM MgCl2, 1 mM CaCl2, and 20 mM HEPES [7.4 pH]) or buffer B (25 mM NaCl, 5 mM KCl and 1 mM Cacodylate [6.5 pH]). Emission spectra were recorded over the wavelength range of 330 to 450 nm with an excitation wavelength of 310 nm. The spectral bandpass was 5 nm for all spectra. The dissociation constant for rev binding to RRE-72AP was determined by following the increase in fluorescence at 370 nm as a fixed concentration of the fluorescent RNA was titrated with increasing amounts if rev. Similarly, the binding of aminoglycosides was followed by monitoring the change in 2-AP fluorescence as a fixed concentration of RRE-72AP or RRE-68AP was titrated with increasing amounts of the aminoglycoside. Single site binding of rev or aminoglycoside was fitted to Formula I:\nF=−{(Fo−Ff)/2*[RRE]tot}{b−{square root over ((b^2−4[L]tot[RRE]tot))}}+Fo (1)\nwhere Fo and Ff are the initial and final fluorescence intensities, respectively, [RRE]tot is the total RRE concentration, and [L]tot is the total concentration of rev, aminoglycoside or other ligands. […]"}, "RRE": {"molecular_target": "RRE", "conditions": "direct binding, highly specific for the RRE; read-out: KD of rev binding to RRE; cited from earlier work"}},
  "note": "Where two headings read alike, the source gives them in different places. *1 amine or outer side, *2 acyl side, *3 side chain or, on linkers, in order; H or OH if unused. Where no end group is shown, it is not given here. Suc = O=C(CCC(=O)[*:2])[*:1]",
  "data": [
    {"compound": "NC[C@@H]1O[C@H](O[C@H]2[C@@H](O)[C@H](O[C@@H]3[C@@H](O)[C@H](N)C[C@H](N)[C@H]3O[C@H]3O[C@H](CN)[C@@H](O)[C@H](O)[C@H]3N)O[C@@H]2CO)[C@H](N)[C@@H](O)[C@@H]1O", "note": "[Neomycin B]", "values": [
      {"measurement": "Kd", "setting": "72AP-RRE-peptide complex; read-out: KD, first tight site", "result": "~230", "unit": "nM"},
      {"measurement": "Kd", "setting": "72AP-RRE-peptide complex; read-out: KD, second site, competitive with rev", "result": "~1900", "unit": "nM"},
      {"measurement": "Kd", "setting": "68AP-RRE; 68AP-RRE construct, read-out: KD, first site, non-inhibitory to rev binding", "result": "240 ± 40", "unit": "nM"},
      {"measurement": "Kd", "setting": "68AP-RRE; 68AP-RRE construct, read-out: KD, second site, inhibited rev binding in a competitive fashion", "result": "1800 ± 80", "unit": "nM"},
      {"measurement": "Kd", "setting": "68AP-RRE; 68AP-RRE construct, read-out: KD, third class of sites, non-specific binding", "result": "~40000", "unit": "nM"}
    ]},
    {"compound": "[H]/N=C(/N)N[C@H]1[C@H](O)[C@@H](O)[C@H](O[C@@H]2O[C@@H](C)[C@](O)(C=O)[C@H]2O[C@@H]2O[C@@H](CO)[C@H](O)[C@@H](O)[C@@H]2NC)[C@@H](N/C(N)=N\\[H])[C@@H]1O", "note": "[Streptomycin]", "values": [
      {"measurement": "Kd", "setting": "68AP-RRE; RRE, reported alongside the 68AP-RRE data, read-out: KD, low affinity binding interaction with RRE", "result": 1500, "unit": "nM"}
    ]},
    {"compound": "Suc-TRQARRNRRWRERQRAAAK [rev peptide]", "values": [
      {"measurement": "Kd", "setting": "72AP-RRE", "result": "~13", "unit": "nM"}
    ]},
    {"compound": "rev: HIV-1 regulatory protein rev that binds the rev-responsive element (RRE)", "values": [
      {"measurement": "Kd", "setting": "RRE", "result": "1 to 3", "unit": "nM"}
    ]}
  ]
}
